# Data: ChEMBL document CHEMBL1201862, “PubChem BioAssay data set” (2004)
# Several values for one entry are separate records, joined by “and”; a condition that tells them apart may be missing. Equal values may be shown once. Activity calls are given as the source filed them.
# Key:
# [1] = target: Peroxisome proliferator-activated receptor gamma/Nuclear receptor coactivator 1 (Homo sapiens, UniProt P37231); assay: TR-FRET dose response biochemical High Throughput Screening assay for agonists of the steroid receptor coactivator 1 (SRC-1) recruitment by the peroxisome proliferator-activated receptor gamma (PPAR gamma): non-selective agonists. [Related pubchem assays (depositor defined):AID1300, AID1808, AID504735, AID631]; type: protein assay
# [2] = target: Peroxisome proliferator-activated receptor gamma/Nuclear receptor coactivator 3 (Homo sapiens, UniProt P37231); assay: TR-FRET dose response biochemical High Throughput Screening assay for agonists of the steroid receptor coactivator 3 (SRC-3) recruitment by the peroxisome proliferator-activated receptor gamma (PPAR gamma): non-selective agonists. [Related pubchem assays: 1301 (Confirmation screen.), 1048 (Primary screen.)]; type: functional
# [3] = target: Peroxisome proliferator-activated receptor gamma/Nuclear receptor coactivator 2 (Homo sapiens, UniProt P37231); assay: TR-FRET dose response biochemical High Throughput Screening assay for agonists of the steroid receptor coactivator 2 (SRC-2) recruitment by the peroxisome proliferator-activated receptor gamma (PPAR gamma): non-selective agonists. [Related pubchem assays: 1297, 1032 ]; type: functional
# [4] = target: Induced myeloid leukemia cell differentiation protein Mcl-1 (Homo sapiens, UniProt Q07820); type: functional
# Sequence of Induced myeloid leukemia cell differentiation protein Mcl-1 (Q07820 whole entry): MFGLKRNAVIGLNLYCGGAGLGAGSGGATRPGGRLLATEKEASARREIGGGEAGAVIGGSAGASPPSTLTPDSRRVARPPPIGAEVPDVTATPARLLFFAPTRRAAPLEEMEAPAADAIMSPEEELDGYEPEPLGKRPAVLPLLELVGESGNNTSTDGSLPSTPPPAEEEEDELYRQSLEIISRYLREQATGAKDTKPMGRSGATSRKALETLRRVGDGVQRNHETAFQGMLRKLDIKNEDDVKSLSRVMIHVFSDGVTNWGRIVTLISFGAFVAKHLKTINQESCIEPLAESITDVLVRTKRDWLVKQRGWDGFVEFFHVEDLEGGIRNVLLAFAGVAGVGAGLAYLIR
# [5] = target: T1, Coagulation factor XII (Homo sapiens, UniProt P00748); type: functional;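 further: activated factor XIIa alpha cleaving a fluorogenic AMC peptide substrate; inhibitor potency from loss of enzyme activity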
# T1 sequence (P00748 whole entry): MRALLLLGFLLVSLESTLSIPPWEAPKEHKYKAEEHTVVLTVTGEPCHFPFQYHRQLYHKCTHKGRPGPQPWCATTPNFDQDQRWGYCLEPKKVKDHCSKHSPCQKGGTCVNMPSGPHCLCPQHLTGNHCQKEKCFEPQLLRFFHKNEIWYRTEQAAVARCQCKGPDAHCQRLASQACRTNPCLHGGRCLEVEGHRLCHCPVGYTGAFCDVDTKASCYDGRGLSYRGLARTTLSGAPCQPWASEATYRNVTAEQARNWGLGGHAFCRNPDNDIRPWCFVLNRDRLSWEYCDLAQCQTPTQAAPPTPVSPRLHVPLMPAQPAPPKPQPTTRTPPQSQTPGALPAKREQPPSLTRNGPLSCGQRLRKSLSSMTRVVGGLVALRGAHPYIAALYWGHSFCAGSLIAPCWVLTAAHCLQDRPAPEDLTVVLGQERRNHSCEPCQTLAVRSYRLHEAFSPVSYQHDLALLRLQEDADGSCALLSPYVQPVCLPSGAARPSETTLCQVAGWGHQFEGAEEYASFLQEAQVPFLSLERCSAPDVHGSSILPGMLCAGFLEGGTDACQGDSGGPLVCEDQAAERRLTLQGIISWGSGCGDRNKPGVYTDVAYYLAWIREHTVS
# [6] = viability loss in HeLa cells – cytotoxicity control for MgcRacGAP inhibitor project, dose response (AID 624300); type: functional
# [7] = target: T2, Rac GTPase-activating protein 1 (Homo sapiens, UniProt Q9H0H5); assay: blockers of MgcRacGAP-driven Rac1 GTP hydrolysis – biochemical, ADP Hunter fluorescence, primary and confirmatory, confirmation (AID 624330); type: functional
# T2 sequence (Q9H0H5 whole entry): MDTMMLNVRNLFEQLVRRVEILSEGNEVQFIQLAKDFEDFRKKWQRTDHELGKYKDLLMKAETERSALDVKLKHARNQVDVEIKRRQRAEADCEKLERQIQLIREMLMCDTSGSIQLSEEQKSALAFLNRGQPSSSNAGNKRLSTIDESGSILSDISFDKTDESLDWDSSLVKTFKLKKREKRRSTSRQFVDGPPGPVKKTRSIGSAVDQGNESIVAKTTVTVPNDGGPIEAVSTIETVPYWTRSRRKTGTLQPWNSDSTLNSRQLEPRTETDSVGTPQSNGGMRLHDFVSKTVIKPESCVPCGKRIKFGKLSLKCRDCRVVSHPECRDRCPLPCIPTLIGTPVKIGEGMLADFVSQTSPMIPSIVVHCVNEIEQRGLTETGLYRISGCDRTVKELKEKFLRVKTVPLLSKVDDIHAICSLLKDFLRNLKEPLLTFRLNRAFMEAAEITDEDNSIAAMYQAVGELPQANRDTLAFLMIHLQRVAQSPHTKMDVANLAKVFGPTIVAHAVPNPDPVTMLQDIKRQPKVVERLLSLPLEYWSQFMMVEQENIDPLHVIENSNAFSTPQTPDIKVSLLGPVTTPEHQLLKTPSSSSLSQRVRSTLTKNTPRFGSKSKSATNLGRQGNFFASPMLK
# [8] = system: Escherichia coli; assay: microbe, parasite or virus in culture
# [9] = NIH-3T3 fibroblast cytotoxicity, dose response, cytotoxicity control, cell-based, fluorescence, Alamar Blue, secondary assay (AID 2327); type: functional;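 further: NIH-3T3 mouse fibroblasts cultured with fluconazole at 8 µg/mL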
# [10] = system: Streptococcus sp. 'group A'; assay: Streptococcus pyogenes SK(-)GAS viability under kanamycin – luminescence, BacTiterGlo, confirmation, counter-screen for streptokinase expression inhibitor project, dose response (AID 1900); type: functional, organism-based
# [11] = fluconazole-exposed Candida albicans growth modulators – fluorescence, retest, confirmation (AID 2467); type: functional, cell-based
# [12] = Trypanosoma cruzi growth suppression in host cells – NIH3T3 host cells, beta-gal luminescence, confirmation (AID 2044); type: functional, cell-based;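 further: intracellular parasites grown in NIH/3T3 mouse fibroblasts as host cells; luminescent beta-galactosidase reporter signal from transgenic T. cruzi replicating inside host cells; inhibitors lower the luminescence signal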
# [13] = target: T3, Serine/threonine-protein phosphatase (Candida dubliniensis (strain CD36 / CBS 7987 / NCPF 3949 / NRRLY-17841) (Yeast), UniProt B9W6M3); assay: blockers of CaCl2-induced CDRE-lacZ signaling – S. cerevisiae, luminescence, secondary, dose response (AID 2388); type: functional, cell-based;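 further: yeast reporter cells carrying a calcineurin-responsive lacZ construct stimulated with calcium chloride; luminescent beta-galactosidase reporter signal in whole cells rather than isolated phosphatase activity; potency for inhibition where a drop in reporter signal means calcineurin blockade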
# T3 sequence (B9W6M3 whole entry): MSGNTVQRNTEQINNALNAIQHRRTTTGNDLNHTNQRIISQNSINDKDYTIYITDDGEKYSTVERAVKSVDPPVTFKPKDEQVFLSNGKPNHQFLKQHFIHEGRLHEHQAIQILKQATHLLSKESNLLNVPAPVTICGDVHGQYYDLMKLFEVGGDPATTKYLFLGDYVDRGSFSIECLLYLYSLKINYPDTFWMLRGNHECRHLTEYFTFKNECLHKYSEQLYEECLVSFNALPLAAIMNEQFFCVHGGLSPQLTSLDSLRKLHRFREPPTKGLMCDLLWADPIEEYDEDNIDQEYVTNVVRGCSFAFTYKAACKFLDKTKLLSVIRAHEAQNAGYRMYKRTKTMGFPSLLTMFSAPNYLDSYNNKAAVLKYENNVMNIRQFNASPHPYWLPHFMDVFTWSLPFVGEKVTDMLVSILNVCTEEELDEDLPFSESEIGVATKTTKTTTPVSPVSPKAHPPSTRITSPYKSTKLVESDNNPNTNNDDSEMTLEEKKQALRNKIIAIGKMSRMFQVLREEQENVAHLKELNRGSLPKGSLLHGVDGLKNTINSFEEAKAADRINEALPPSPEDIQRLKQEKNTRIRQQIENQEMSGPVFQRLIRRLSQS
# [14] = target: T4, Kappa-type opioid receptor (Homo sapiens, UniProt P41145); type: functional
# T4 sequence (P41145 whole entry): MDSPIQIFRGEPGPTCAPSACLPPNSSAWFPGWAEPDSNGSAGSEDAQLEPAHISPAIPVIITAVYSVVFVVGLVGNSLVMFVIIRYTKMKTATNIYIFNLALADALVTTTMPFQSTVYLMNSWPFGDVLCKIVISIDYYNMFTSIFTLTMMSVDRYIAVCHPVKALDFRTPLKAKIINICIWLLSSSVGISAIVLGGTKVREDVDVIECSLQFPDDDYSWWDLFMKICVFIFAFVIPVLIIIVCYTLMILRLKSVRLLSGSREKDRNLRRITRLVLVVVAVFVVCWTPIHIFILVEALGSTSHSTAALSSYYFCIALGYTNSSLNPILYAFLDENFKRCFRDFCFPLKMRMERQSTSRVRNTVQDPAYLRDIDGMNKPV
# [15] = NIH3T3 cell viability loss – ATP luminescence, mouse fibroblasts, counter-screen, dose response (AID 2010); type: functional, cell-based;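 further: cells exposed to compound for about 90 hours before reading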
# [16] = target: Beta-galactosidase (Escherichia coli, UniProt Q8VNN2); type: functional
# [17] = target: T4, Kappa-type opioid receptor; type: functional; remark: listed apart in the source
# [18] = system: Streptococcus; assay: GAS UMAA2166 growth inhibition – luminescence, BacTiterGlo, counter-screen for streptokinase expression inhibitor project, dose response (AID 1915); type: functional, organism-based;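 further: potency for reduction of bacterial viability or growth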
# [19] = target: Exodeoxyribonuclease V (Escherichia coli (strain K12), UniProt P04993+P07648+P08394); assay: RecBCD inhibition via phage-restricted bacterial growth – absorbance, V66 E. coli, mutant T4 phage, counter-screen for AddAB inhibitor project, dose response (AID 492957); type: functional, cell-based, Escherichia coli str. K-12 substr. MG1655
# [20] = Counterscreen for AddAB inhibitors: absorbance-based bacterial cell-based high throughput dose response assay for inhibitors of bacterial viability. [Related pubchem assays (depositor defined):AID435030, AID449728, AID449731, AID488942, AID488955, AID488956]; type: functional
# [21] = system: INS1; assay: INS-1E survival protection against cytokine death – cell-based, luminescence, retest, dose response (AID 449756); type: functional; conditions: Rattus norvegicus;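 further: cell death triggered by IL-1 beta plus TNF-alpha plus IFN-gamma mixture; protective hits raise ATP signal compared with cytokine alone wells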
# [22] = target: ATP-dependent molecular chaperone HSP82 (Candida albicans (strain WO-1) (Yeast), UniProt C4YTQ8); assay: steroid-induced GRE reporter decrease in yeast – S. cerevisiae, luminescence, Hsp90 inhibitor project, dose response (AID 2400); type: functional, cell-based;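 further: beta-galactosidase luminescence from glucocorticoid response element reporter as proxy for Hsp90 function; inhibitor potency where signal loss means Hsp90 inhibition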
# [23] = decrease of insulin promoter-GFP reporter – imaging, high-content screening, mouse beta cells (AID 1628); type: functional; conditions: MIN6
# [24] = system: BJ; assay: BJ-TERT fibroblast viability loss – cell-based, RAS-independent, luminescence, dose response (AID 1933); type: functional; conditions: Homo sapiens
# [25] = MIN6 cell viability loss – mouse insulinoma, cytotoxicity control, dose response (AID 2122); type: functional;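 further: confirmatory high-throughput counterscreen run to flag cytotoxic compounds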
# [26] = system: BJ; assay: cells; type: functional, cell-based; conditions: Homo sapiens
# [27] = system: BJ; assay: BJ-TERT-LT-ST fibroblast viability loss – cell-based, RAS-independent, luminescence, dose response (AID 1935); type: functional; conditions: Homo sapiens;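 further: BJ fibroblasts immortalized with TERT plus LT and ST oncogenes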
# [28] = DRD fibroblast viability loss – cell-based, non-viral oncogenic, luminescence, dose response (AID 1934); type: functional; conditions: Homo sapiens
# [29] = Luminescence Cell-Based Dose Retest to Confirm Inhibitors of Cancer Stem Cells. [Related pubchem assays (depositor defined):AID2717, AID2721]; type: functional; conditions: Homo sapiens
# [30] = target: SUMO E1/E2 (Homo sapiens, UniProt P63279+Q9UBE0+Q9UBT2); assay: SAR analysis of SUMOylation using HTRF in an in-Vitro dose response assay. [Related pubchem assays (depositor defined):AID2006, AID2011, AID2018, AID2069, AID2658]; type: functional
# Sequence of SUMO E1/E2 (Q9UBE0 whole entry): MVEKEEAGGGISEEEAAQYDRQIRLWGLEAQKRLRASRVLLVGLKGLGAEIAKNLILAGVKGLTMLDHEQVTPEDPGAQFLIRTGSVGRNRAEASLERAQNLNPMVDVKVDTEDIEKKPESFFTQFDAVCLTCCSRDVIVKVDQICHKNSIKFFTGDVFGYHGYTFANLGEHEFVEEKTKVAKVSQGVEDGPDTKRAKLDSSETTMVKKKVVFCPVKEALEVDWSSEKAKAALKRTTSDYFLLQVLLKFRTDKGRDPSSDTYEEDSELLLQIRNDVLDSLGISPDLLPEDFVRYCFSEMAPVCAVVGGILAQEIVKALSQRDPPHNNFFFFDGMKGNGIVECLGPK
# Sequence of SUMO E1/E2 (Q9UBT2 whole entry): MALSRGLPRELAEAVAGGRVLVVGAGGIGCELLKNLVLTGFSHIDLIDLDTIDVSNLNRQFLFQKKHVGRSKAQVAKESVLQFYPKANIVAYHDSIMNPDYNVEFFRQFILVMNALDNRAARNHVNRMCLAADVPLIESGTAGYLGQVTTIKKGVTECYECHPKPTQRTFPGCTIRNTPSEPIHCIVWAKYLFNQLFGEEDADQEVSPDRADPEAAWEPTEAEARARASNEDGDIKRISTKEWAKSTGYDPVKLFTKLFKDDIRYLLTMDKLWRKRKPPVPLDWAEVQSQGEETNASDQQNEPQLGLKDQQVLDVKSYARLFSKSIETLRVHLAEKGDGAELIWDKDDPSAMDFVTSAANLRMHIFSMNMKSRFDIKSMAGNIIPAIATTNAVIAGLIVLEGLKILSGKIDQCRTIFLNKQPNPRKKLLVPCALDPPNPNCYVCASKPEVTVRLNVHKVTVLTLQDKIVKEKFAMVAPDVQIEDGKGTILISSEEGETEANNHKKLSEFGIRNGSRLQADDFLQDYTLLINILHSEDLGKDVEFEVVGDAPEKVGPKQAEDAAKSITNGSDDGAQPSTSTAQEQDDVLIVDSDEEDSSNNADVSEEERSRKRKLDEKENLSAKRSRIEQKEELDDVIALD
# Sequence of SUMO E1/E2 (P63279 whole entry): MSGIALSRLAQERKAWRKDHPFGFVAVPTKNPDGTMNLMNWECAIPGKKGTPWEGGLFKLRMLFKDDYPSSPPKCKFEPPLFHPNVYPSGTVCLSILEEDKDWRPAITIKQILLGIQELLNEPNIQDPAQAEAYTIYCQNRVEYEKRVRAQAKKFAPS
# [31] = target: T5, Voltage-gated N-type calcium channel alpha-1B subunit/Amyloid beta A4 precursor protein-binding family A member 1 (Homo sapiens, UniProt Q00975+Q02410); assay: disruptors of Mint-PDZ/N-type channel peptide interaction – biochemical, HTRF, set 2, SAR follow-up (AID 434980); type: functional
# T5 sequence (Q00975 whole entry): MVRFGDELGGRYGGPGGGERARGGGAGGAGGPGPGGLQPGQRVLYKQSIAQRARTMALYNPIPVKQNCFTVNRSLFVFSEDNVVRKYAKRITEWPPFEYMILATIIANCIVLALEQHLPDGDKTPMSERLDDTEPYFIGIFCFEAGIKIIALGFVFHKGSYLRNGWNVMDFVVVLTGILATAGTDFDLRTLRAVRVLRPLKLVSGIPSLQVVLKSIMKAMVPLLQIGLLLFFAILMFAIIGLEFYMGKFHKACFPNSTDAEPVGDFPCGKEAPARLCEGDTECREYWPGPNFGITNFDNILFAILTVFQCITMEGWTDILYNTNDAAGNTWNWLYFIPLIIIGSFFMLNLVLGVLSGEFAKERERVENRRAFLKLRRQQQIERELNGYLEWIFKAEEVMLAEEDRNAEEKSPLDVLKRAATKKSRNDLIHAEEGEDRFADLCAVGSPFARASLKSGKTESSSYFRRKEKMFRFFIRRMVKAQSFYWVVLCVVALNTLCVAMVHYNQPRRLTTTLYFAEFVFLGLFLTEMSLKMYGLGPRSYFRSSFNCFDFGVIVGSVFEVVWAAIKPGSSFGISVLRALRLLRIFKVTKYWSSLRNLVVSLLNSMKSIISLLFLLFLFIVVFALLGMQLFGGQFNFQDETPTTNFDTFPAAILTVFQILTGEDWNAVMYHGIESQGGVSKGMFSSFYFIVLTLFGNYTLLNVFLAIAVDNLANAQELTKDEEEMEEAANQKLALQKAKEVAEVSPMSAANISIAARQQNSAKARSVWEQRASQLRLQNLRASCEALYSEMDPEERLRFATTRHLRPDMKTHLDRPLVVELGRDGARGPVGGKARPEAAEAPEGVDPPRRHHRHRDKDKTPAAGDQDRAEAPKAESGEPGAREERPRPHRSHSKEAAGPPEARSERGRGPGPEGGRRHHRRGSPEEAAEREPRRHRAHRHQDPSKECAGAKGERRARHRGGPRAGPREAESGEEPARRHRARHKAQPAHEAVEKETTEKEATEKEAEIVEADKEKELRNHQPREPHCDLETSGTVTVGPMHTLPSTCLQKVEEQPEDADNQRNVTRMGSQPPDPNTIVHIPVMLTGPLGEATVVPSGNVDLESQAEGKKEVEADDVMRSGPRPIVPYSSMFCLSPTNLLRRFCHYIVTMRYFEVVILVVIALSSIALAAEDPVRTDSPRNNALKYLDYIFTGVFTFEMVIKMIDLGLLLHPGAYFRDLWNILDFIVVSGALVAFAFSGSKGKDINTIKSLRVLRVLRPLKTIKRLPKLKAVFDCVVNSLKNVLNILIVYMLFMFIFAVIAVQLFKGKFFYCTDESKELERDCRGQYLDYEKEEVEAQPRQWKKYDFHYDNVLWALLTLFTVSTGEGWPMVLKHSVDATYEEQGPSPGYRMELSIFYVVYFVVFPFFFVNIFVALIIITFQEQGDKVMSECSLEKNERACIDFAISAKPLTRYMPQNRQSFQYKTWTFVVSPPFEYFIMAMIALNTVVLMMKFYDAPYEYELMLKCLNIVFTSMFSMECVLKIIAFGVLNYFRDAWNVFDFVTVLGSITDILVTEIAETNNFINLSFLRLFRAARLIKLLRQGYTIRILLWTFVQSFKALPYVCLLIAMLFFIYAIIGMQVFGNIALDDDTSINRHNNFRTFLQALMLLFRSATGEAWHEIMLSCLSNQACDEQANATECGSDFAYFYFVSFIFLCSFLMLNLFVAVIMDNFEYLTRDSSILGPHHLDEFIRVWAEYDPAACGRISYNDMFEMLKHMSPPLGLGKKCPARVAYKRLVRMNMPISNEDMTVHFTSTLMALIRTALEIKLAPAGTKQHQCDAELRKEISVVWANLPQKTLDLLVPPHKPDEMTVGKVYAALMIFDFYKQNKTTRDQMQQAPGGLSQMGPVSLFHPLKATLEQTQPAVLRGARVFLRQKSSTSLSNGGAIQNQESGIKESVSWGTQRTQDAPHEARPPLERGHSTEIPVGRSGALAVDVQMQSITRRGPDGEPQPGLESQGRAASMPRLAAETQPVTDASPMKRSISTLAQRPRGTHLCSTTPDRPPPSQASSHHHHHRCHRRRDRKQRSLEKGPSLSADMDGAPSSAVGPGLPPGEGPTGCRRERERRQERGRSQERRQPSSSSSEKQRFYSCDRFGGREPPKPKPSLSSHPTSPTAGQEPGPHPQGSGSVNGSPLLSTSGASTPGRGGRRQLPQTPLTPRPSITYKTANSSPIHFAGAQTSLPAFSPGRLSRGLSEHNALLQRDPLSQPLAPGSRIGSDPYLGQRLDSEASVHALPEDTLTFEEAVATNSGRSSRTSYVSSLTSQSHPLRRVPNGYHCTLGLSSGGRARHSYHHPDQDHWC
# T5 sequence (Q02410 whole entry): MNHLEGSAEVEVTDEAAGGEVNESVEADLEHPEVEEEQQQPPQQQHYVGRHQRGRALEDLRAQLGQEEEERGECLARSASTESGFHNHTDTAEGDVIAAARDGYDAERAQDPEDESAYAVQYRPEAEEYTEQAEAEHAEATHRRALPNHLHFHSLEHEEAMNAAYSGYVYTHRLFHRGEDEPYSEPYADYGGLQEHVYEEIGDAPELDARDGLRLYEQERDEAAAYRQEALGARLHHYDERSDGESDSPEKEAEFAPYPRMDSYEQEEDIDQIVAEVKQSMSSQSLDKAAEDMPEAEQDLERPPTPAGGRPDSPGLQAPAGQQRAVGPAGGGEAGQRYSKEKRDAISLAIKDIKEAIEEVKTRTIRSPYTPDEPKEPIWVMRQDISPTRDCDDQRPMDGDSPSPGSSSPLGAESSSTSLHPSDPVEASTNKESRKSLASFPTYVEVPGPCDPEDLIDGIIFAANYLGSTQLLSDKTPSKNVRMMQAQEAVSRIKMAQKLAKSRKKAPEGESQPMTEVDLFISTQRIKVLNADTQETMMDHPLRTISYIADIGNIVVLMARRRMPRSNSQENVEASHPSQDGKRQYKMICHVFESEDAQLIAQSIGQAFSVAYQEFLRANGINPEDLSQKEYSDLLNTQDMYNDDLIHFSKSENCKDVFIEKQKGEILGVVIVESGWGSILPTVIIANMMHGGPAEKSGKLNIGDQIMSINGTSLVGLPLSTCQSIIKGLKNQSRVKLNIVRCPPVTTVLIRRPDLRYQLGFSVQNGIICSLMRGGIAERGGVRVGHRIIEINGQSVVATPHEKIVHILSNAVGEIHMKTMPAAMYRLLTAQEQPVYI
# [32] = target: T5, Voltage-gated N-type calcium channel alpha-1B subunit/Amyloid beta A4 precursor protein-binding family A member 1; assay: disruptors of Mint-PDZ/N-type channel peptide interaction – biochemical, HTRF, SAR follow-up (AID 2489); type: functional
# [33] = target: T6, Mannose-6-phosphate isomerase (Homo sapiens, UniProt P34949); assay: phosphomannose isomerase inhibition – biochemical, fluorescence intensity, confirmation (AID 1535)
# T6 sequence (P34949 whole entry): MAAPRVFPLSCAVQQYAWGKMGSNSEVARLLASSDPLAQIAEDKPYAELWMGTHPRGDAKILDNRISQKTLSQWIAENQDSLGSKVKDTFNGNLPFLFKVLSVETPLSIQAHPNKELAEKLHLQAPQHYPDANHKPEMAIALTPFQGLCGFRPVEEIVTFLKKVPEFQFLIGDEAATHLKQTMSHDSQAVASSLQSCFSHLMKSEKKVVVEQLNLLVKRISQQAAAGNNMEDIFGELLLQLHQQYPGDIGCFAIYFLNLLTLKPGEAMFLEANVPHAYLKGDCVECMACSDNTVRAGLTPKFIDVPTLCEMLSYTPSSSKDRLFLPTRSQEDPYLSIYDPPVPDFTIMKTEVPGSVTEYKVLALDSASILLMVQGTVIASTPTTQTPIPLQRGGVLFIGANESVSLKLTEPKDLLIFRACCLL
# [34] = target: T4, Kappa-type opioid receptor; assay: SAR analysis of small molecule agonists of the kappa opioid receptor via a luminescent beta-arrestin assay - Set 3. [Related pubchem assays (depositor defined):AID1777, AID1785, AID1786, AID1966, AID2133, AID2136, AID2284, AID2500]; type: functional
compound,measurement,setting,value
COC(=O)CNc1nnc(S)nc1O,EC50,[1],1.61 µM (active)
same,EC50,[2],53.6 µM (not active)
same,EC50,[3],2.15 µM (active)
O=C1NC(=S)N(C2CC2)C(=O)/C1=C/c1ccc2c(c1)CCN2CCCCl,IC50,[4],2.61 µM (active)
same,IC50,[5],> 50 µM (inactive)
same,CC50,[6],85.4 µM (active)
same,IC50,[7],95.6 µM (active)
CC(Sc1nnc(-c2ccccc2F)n1C1CC1)C(=O)NCc1ccco1 (stereo not given),AC50,[8],24.4 µM (active)
COc1cccc(C(=O)Nc2cc([N+](=O)[O-])ccc2N2CCN(C)CC2)c1,AC50,[8],25.5 µM (active)
Oc1ccc(N=Nc2ccc3c(c2)OCCO3)c2ncccc12,EC50,[9],> 150 µM (inconclusive)
same,EC50,[10],0.682 µM (active)
same,EC50,[11],0.872 µM (active)
same,EC50,[12],0.91 µM (active)
same,EC50,[13],> 180 µM (inactive)
same,IC50,[14],4.93 µM (active)
same,EC50,[15],4.43 µM (active)
same,EC50,[16],25.3 µM (active)
same,IC50,[17],> 32 µM
same,EC50,[18],2.27 µM (active)
same,IC50,[19],> 119 µM (inactive)
same,IC50,[20],> 119 µM (inactive)
same,AC50,[21],2.32 µM (active)
same,EC50,[22],11.7 µM (active)
O=C(CCC1CCCC1)Nc1ccc(C(=O)NCc2cccnc2)cc1,IC50,[23],0.331 µM (active)
same,EC50,[24],> 150 µM (not active)
same,IC50,[25],> 16 µM (inactive)
same,EC50,[26],0.672 µM (inconclusive)
same,EC50,[27],1.53 µM (inconclusive)
same,EC50,[28],> 150 µM (not active)
same,AC50,[29],0.882 µM (active)
COc1ccccc1NC(=O)COC(=O)c1cc(-c2ccco2)nc2ccccc12,IC50,[30],16 µM (active) and 56.7 µM (active)
same,IC50,[31],6.66 µM (active) and 12.5 µM (active)
same,IC50,[32],21.5 µM (active) and > 56.8 µM (inactive)
Clc1nss/c1=N\c1ncccn1,IC50,[33],> 100 µM (inactive)
COc1ccc(CNC(=O)COC(=O)c2cc(-c3ccco3)nc3ccccc23)c(OC)c1,IC50,[30],14.7 µM (active)
same,IC50,[31],11.1 µM (active)
same,IC50,[32],23 µM (active)
O=C(c1ccccn1)N(Cc1cc2cc(Cl)ccc2[nH]c1=O)CC1CC1,EC50,[34],> 20 µM (inactive)
Cc1c(Cl)cccc1NC(=O)CCC(=O)N/N=C/c1ccc[nH]1,IC50,[23],2.31 µM (active)
same,IC50,[25],2.36 µM (active)
